Test results: paper PMC10184157 (ACS Medicinal Chemistry Letters, 2023)

Test system: athymic nude mice doubly xenografted with PC3 cells and 22Rv1 cells
Assay: Quantitative PET imaging in doubly xenografted mice
Type: in vivo
Conditions: PET VOI analysis, 50-70 min p.i., retro-orbital injection

uptake in 22Rv1 tumor: 3.22 % ID/g
SMILES: O=C([O-])CN(CCN(CC(=O)[O-])Cc1cc(CCC(=O)NCCCCCC(=O)NCCCC[C@H](NC(=O)N[C@@H](CCC(=O)O)C(=O)O)C(=O)O)ccc1[O-])Cc1cc(CCC(=O)O)ccc1[O-].[68Ga+3].[OH3+] [[^68Ga]Ga-PSMA11, HO-Glu-CO-Lys(HBED-CC-Ahx)-OH]
